# In patent US11623924B2, “Modulators of alpha-1 antitrypsin” (Vertex Pharmaceuticals Incorporated, priority 2018, dated 2023):
# Biological target: T1, NL20 human bronchial epithelial cells expressing human Z-AAT (Homo sapiens, UniProt P01009, E366K)
# T1 construct: expressed in transfected cells; host or cells: NL20 human bronchial epithelial cells (NL20-SI line, doxycycline added)
# Experiment: AAT Function Assay (MSD Assay NL20-SI Cell Line)
# Format: cell-based
# Conditions: functionally active AAT (AAT-hNE complex) in supernatant of NL20 cells expressing human Z-AAT; read-out: NL20 Func. (EC50)
# Outline: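 NL20 cells expressing Z-AAT, seeded 16,000 cells/well, received compound with doxycycline (0.1 μM final) and were incubated overnight at 37° C. Supernatants, diluted 45-fold in total, reacted with excess human neutrophil elastase; AAT-elastase complex captured on anti-AAT plates, detected with Sulfo-tagged anti-elastase by MSD electrochemiluminescence, and quantified against M-AAT standards (0.156-320 ng/mL).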
# T1 sequence (P01009 25-418 E366K): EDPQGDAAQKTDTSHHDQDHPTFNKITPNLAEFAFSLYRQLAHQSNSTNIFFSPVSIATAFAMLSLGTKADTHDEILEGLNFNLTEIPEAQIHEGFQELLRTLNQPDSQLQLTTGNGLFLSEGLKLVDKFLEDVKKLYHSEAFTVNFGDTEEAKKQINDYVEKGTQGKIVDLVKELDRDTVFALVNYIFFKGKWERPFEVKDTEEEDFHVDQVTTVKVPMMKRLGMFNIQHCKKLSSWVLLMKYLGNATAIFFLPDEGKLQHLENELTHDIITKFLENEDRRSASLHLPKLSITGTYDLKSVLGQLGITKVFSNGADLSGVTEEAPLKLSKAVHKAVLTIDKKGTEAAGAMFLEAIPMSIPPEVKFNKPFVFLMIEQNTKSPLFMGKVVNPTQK
row,EC50 [µM],SMILES
1,> 3,"CC(C)c1c(CCC(=O)O)c2cc3[nH]ncc3cc2n1-c1cccc(C(F)(F)F)c1 [Compound 40, 3-[6-isopropyl-5-[3-(trifluoromethyl)phenyl]-1H-pyrrolo[2,3-f]indazol-7-yl]propanoic Acid]"
2,1.16 to 3,"O=C(O)C1CC2(C1)CC(c1c(C3CCOCC3)n(-c3ccc(F)cc3)c3cc4cn[nH]c4cc13)C2 (racemic) [Compound 108, 6-(5-(4-fluorophenyl)-6-(tetrahydro-2H-pyran-4-yl)-1,5-dihydropyrrolo[2,3-f]indazol-7-yl)spiro[3.3]heptane-2-carboxylic Acid]"
3,< 1.16,Cc1cc(-n2c(C(C)C)c(CC(C)C(=O)O)c3cc4[nH]ncc4cc32)ccc1F (racemic) [Compound 19]
4,< 1.16,"O=C(O)C1CC2(C1)CC(c1c(C3CCOCC3)n(-c3ccc(F)c(F)c3)c3cc4c(Cl)n[nH]c4cc13)C2 (stereo not shown) [Compound 130, 6-[3-chloro-5-(3,4-difluorophenyl)-6-tetrahydropyran-4-yl-1H-pyrrolo[2,3-f]indazol-7-yl]spiro[3.3]heptane-2-carboxylic Acid]"
5,1.16 to 3,"O=C1CCCC(c2c(C3CCOCC3)n(-c3ccc(F)cc3)c3cc4cn[nH]c4cc23)C1 (racemic) [Compound 121, 3-[5-(4-fluorophenyl)-6-tetrahydropyran-4-yl-1H-pyrrolo[2,3-f]indazol-7-yl]cyclohexanone]"
6,> 3,"Cc1cc(-n2c(C3(C)COC3)cc3cc4[nH]ncc4cc32)ccc1F [Compound 138, 5-(4-fluoro-3-methyl-phenyl)-6-(3-methyloxetan-3-yl)-1H-pyrrolo[2,3-f]indazole]"
7,> 3,"NC(=O)NCCCc1c(C2CCOCC2)n(-c2ccc(F)cc2)c2cc3cn[nH]c3cc12 [Compound 157, 3-[5-(4-fluorophenyl)-6-tetrahydropyran-4-yl-1H-pyrrolo[2,3-f]indazol-7-yl]propylurea]"
8,> 3,"CC(=O)NCCCc1c(C2CCOCC2)n(-c2ccc(F)cc2)c2cc3cn[nH]c3cc12 [Compound 156, N-[3-[5-(4-fluorophenyl)-6-tetrahydropyran-4-yl-1H-pyrrolo[2,3-f]indazol-7-yl]propyl]acetamide]"
9,1.16 to 3,O=C(O)[C@H]1C[C@H](c2c(C3CCOCC3)n(-c3ccc(F)c(F)c3)c3cc4cn[nH]c4cc32)C1 [Compound 66]
10,> 3,"Cc1cc(-n2c(C3CCOCC3)c(CC3CC3C(=O)O)c3cc4[nH]ncc4cc32)ccc1F (single isomer, unassigned) [Compound 101]"
11,< 1.16,"Cc1cc(-n2c(C(C)C)c(C3CC4(CC(C(=O)O)C4)C3)c3cc4[nH]ncc4cc32)ccc1F (single isomer, unassigned) [Compound 25]"
12,> 3,"Cc1cc(-n2c(C(C)C)c(S(C)(=O)=O)c3cc4[nH]nc(F)c4cc32)ccc1F [Compound 47, 3-fluoro-5-(4-fluoro-3-methyl-phenyl)-6-isopropyl-7-methylsulfonyl-1H-pyrrolo[2,3-f]indazole]"
13,< 1.16,"Cc1cc(-n2c(C(C)C)c(C3CC(C)(C(=O)O)C3)c3cc4[nH]nc(C)c4cc32)ccc1F (mixture of isomers) [Compound 55, 3-[5-(4-fluoro-3-methyl-phenyl)-6-isopropyl-3-methyl-1H-pyrrolo[2,3-f]indazol-7-yl]-1-methyl-cyclobutanecarboxylic Acid]"
14,1.16 to 3,COCC(C)(C)c1c(CC2CC(C(=O)O)C2)c2cc3[nH]ncc3cc2n1-c1ccc(F)cc1 (stereo not shown) [Compound 175]
15,< 1.16,"N#Cc1c2[nH]ncc2cc2c1c(C1CC3(CC(C(=O)O)C3)C1)c(C1CCOCC1)n2-c1ccc(F)c(F)c1 (stereo not shown) [Compound 133, 6-[8-cyano-5-(3,4-difluorophenyl)-6-tetrahydropyran-4-yl-1H-pyrrolo[2,3-f]indazol-7-yl]spiro[3.3]heptane-2-carboxylic acid]"
16,> 3,"CC(C)(C)c1c(C#N)c2cc3[nH]ncc3cc2n1-c1ccc(F)cc1 [Compound 143, 6-tert-butyl-5-(4-fluorophenyl)-1H-pyrrolo[2,3-f]indazole-7-carbonitrile]"
